Legend:
[1] = target: D1 (Homo sapiens, UniProt P21728); assay: cAMP Glo-sensor assay, antagonist mode; type: cell-based; conditions: human D1, HEK293T cells, vs dopamine
Method: HEK293T cells in 10 cm plates were transfected with 4 μg of Glosensor and 4 μg of DNA encoding the human dopamine D1 receptor. The next day, cells were harvested and plated in polylysine-coated 384-well plates (Greiner) at a density of 20 000 cells/well in DMEM containing 1% dFBS. The next day, media was aspirated from each well and replaced with 20 μL of assay buffer containing 4 mM luciferin. Then, 10 μL of drugs were added 30 min later, and plates were read after 15 min.
In the absence of C21 ([B] = 0), this equation becomes the standard four-parameter logistic equation for fitting agonist concentration–response data.

[2] = target: T1, hM1Dq (Homo sapiens, UniProt P11229, A196G/Y106C); assay: IP-One accumulation assay
T1 sequence (P11229 1-460 Y106C/A196G): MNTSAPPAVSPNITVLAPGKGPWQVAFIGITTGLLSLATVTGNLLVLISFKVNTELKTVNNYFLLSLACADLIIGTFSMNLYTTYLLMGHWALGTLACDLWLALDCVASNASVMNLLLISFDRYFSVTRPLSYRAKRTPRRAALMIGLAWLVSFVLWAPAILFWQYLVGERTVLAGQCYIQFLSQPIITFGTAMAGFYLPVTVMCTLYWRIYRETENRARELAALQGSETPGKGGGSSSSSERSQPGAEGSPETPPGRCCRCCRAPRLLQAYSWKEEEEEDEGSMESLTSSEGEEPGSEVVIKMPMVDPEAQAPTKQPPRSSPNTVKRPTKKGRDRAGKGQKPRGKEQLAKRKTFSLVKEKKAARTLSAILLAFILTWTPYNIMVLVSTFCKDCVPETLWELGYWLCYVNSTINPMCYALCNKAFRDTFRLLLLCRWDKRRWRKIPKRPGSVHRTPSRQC

[3] = target: T2, hM4 (Homo sapiens, UniProt P08173); assay: inhibition of isoproterenol-stimulated cAMP production; type: cell-based; conditions: hM4, inhibition of isoproterenol elevated cAMP, mean (±SEM)
T2 construct: HA (hemagglutinin); expressed in transfected cells
T2 sequence (P08173 1-479): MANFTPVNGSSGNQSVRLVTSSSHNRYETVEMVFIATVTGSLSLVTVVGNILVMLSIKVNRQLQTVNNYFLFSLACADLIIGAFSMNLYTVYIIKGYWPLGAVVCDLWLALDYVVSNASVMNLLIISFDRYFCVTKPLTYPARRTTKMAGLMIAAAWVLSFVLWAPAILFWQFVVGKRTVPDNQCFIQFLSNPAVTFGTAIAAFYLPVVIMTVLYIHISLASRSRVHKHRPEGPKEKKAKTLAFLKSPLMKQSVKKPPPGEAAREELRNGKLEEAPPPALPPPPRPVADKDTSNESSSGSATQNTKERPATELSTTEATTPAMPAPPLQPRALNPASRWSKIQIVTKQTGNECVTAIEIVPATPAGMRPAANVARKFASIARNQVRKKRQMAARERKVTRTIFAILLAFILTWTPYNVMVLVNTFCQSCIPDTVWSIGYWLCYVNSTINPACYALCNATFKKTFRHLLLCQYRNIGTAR

[4] = target: T2, hM4; assay: whole-cell [3H]NMS competition binding; conditions: hM4, FlpIn CHO cells, mean (±SEM)
[5] = system: hM4Di expressed in PVH SIM1 neurons; assay: food intake, hM4Di in PVH SIM1 neurons (Sim1-Cre mice)

D1, sequence (P21728 whole entry): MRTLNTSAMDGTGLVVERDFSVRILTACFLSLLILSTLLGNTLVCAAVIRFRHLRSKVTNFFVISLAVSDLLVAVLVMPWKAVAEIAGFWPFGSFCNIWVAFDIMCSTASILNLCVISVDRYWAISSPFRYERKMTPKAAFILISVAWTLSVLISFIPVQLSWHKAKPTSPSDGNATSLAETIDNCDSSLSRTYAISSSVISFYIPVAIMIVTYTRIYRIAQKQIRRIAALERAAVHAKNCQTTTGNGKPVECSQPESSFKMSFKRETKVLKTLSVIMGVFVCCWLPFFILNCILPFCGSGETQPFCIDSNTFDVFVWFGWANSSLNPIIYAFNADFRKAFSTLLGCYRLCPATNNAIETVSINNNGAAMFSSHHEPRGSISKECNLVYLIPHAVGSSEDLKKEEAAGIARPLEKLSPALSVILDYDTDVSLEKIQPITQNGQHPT

**Q.** `c1ccc2c(c1)N=C(N1CCNCC1)c1ccccc1N2` [C21, 11-(1-piperazinyl)-5H-dibenzo[b,e][1,4]diazepine] was tested. Which “antagonist activity, cAMP assay” value [1] did it give?
**A.** Its value is “antagonism”.

**Q.** What about the EC50 [2] of the same compound?
**A.** Its EC50 is 1.23 nM.

**Q.** What about the EC50 [3] of the same compound?
**A.** Its EC50 is 1860 nM.

**Q.** And the Ki [4]?
**A.** Its Ki is 3630 nM.

**Q.** What about the “food intake, light cycle, sated mice” value ([5]; SIM1-Cre mice with AAV-DIO-hM4Di-mCherry, i.p.) of the same compound?
**A.** Its value is “substantially enhanced food consumption at comparable levels to CNO”.

**Q.** What about the “food intake in control mice” value ([5]; wildtype (non-Cre-expressing) littermates injected with AAV-DIO-hM4Di-mCherry) of the same compound?
**A.** Its value is “neither C21 nor CNO ligand influenced food intake”.

— publication PMC6407913, “DREADD Agonist 21 Is an Effective Agonist for Muscarinic-Based DREADDs in Vitro and in Vivo” (ACS Pharmacology & Translational Science, 2018)
